Test results from US3982931A, “N,N-di-sec.butyl-benzamide herbicides” (priority 1967, dated 1976).

Columns and labels:
[1] = system: zea mais L. (corn); assay: activity on agrarian species, soil treatment one day after sowing; type: in vivo
Text: (§1) The infesting species and the agrarian species have been indicated in Table 1 by letters, as follows:
(§2) Method of evaluation of the results (of tests):
(§3) 0 = no activity and no difference with respect to the control;
(§4) 1 slight differences with respect to the control;
(§5) 3 = considerable activity with damages that definitely impair the further development of most of the small plants; an activity degree already useful for practical purposes;
(§6) 4 = maximum of activity with lack of germination or total containment of the small plants in the emerging stage.
(§7) In the case of an intermediate activity between two classes of the scale, both values are recorded with the one which corresponds to the preeminent activity preceding.
(§8) TABLE 2 reports the activity data of other compounds that fall within the class which is the object of this invention.
(§9) TABLE 3 reports data on the herbicidal activity against infesting herbs, while TABLE 4 reports data concerning the activity on useful species of agricultural cultivations. These tables employ the criterion explained previously. The product was spread on the soil one day after sowing, in quantities of 1, 3, 6, 8, 10, 12 and 14 kg/ha.

[2] = system: phaseolus vulgaris (bean); assay: as above; type: in vivo, Phaseolus vulgaris L.
Text: as §1
I = phaseolus vulgaris (bean)
as §2, §3, §4, §5, §6, §7, §8, §9

[3] = system: vicia sativa L.; assay: herbicidal activity, soil treatment one day after sowing; type: in vivo
Outline: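 Pre-emergence soil treatment one day after sowing; activity scored visually on a […] scale against untreated control, from slight difference (1) to no germination or total containment at emergence (4); intermediate activity recorded as both classes, preeminent value first.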

[4] = system: setaria glauca L.; assay: as above; type: in vivo
[5] = system: beta vulgaris L. (sugar-beet); assay: activity on agrarian species, soil treatment one day after sowing; type: in vivo
Text: as §1
H = beta vulgaris L. (sugar-beet)
as §2, §3, §4, §5, §6, §7, §8, §9

[6] = system: avena sativa (oats); assay: as above; type: in vivo, Avena sativa L.
Text: as §1, §2, §3, §4, §5, §6, §7, §8, §9

[7] = system: solanum Lycopersicum L.; assay: as above; type: in vivo
Text: as §1
M = solanum Lycopersicum L.
as §2, §3, §4, §5, §6
In the case of an intermediate activity between two classes of the scale, both values are recorded with the one which corresponds to the preeminent activity preceding. […]

[8] = system: triticum vulgare L. (wheat); assay: as above; type: in vivo
Text: as §1
N = triticum vulgare L. (wheat)
as §2, §3, §4, §5, §6, §7, §8, §9

[9] = system: chenopodium album L.; assay: herbicidal activity, soil treatment one day after sowing; type: in vivo
[10] = system: pisum sativum L. (pea); assay: activity on agrarian species, soil treatment one day after sowing; type: in vivo
Text: as §1
L = pisum sativum L. (pea)
as §2, §3, §4, §5, §6, §7, §8
TABLE 3 reports data on the herbicidal activity against infesting herbs, while TABLE 4 reports data concerning the activity on useful species of agricultural cultivations. These tables employ the criterion explained previously. […]

[11] = system: artemisia vulgaris L.; assay: herbicidal activity, soil treatment one day after sowing; type: in vivo
[12] = system: echinocloa crus-galli R.S.; assay: as above; type: in vivo
[13] = system: oryza sativa L. (rice); assay: activity on agrarian species, soil treatment one day after sowing; type: in vivo
Text: as §1
P = oryza sativa L. (rice)
as §2, §3, §4, §5, §6, §7, §8, §9

[14] = system: amaranthus retroflexus L.; assay: herbicidal activity, soil treatment one day after sowing; type: in vivo

| Compound | activity on F, 0-4 scale ([3]; 2 kg/ha) | activity on F, 0-4 scale ([3]; 4 kg/ha) | activity on F, 0-4 scale ([3]; 6 kg/ha) | activity on E, 0-4 scale ([4]; 2 kg/ha) | activity on E, 0-4 scale ([4]; 4 kg/ha) | activity on E, 0-4 scale ([4]; 6 kg/ha) | activity on C, 0-4 scale ([9]; 2 kg/ha) | activity on C, 0-4 scale ([9]; 4 kg/ha) | activity on C, 0-4 scale ([9]; 6 kg/ha) | activity on B, 0-4 scale ([11]; 2 kg/ha) | activity on B, 0-4 scale ([11]; 4 kg/ha) | activity on B, 0-4 scale ([11]; 6 kg/ha) | activity on D, 0-4 scale ([12]; 2 kg/ha) | activity on D, 0-4 scale ([12]; 4 kg/ha) | activity on D, 0-4 scale ([12]; 6 kg/ha) | activity on A, 0-4 scale ([14]; 2 kg/ha) | activity on A, 0-4 scale ([14]; 4 kg/ha) | activity on A, 0-4 scale ([14]; 6 kg/ha) | activity on O, 0-4 scale ([1]; in vivo) | activity on I, 0-4 scale ([2]; in vivo) | also measured |
| --- | --- | --- | --- | --- | --- | --- | --- | --- | --- | --- | --- | --- | --- | --- | --- | --- | --- | --- | --- | --- | --- |
| CCC(C)N(C(=O)c1ccc(Cl)c(Br)c1)C(C)CC (stereo not shown) [PA489, 3-bromo,4-chloro-N,N-di-sec.butyl-benzamide] | 0 | 0 | 0-1 | 3 | 4-3 | 4 | 1 | 1-2 | 2 | 0-1 | 1 | 3 | 3-2 | 3-4 | 3-4 | 1 | 1-2 | 3 | – | – | activity on O, 0-4 scale ([1]; 3 kg/ha): 0; activity on O, 0-4 scale ([1]; 6 kg/ha): 0; activity on I, 0-4 scale ([2]; 3 kg/ha): 0; activity on I, 0-4 scale ([2]; 6 kg/ha): 0; activity on H, 0-4 scale ([5]; 6 kg/ha): 1; activity on G, 0-4 scale ([6]; 3 kg/ha): 0; activity on G, 0-4 scale ([6]; 6 kg/ha): 0; activity on M, 0-4 scale ([7]; 6 kg/ha): 1; activity on N, 0-4 scale ([8]; 3 kg/ha): 0; activity on N, 0-4 scale ([8]; 6 kg/ha): 0; activity on L, 0-4 scale ([10]; 3 kg/ha): 0; activity on L, 0-4 scale ([10]; 6 kg/ha): 0; activity on P, 0-4 scale ([13]; 3 kg/ha): 0; activity on P, 0-4 scale ([13]; 6 kg/ha): 0 |
| CCN(CC)C(=O)c1ccc(Cl)c(Cl)c1 [PA61, 3,4-dichloro-N,N-diethyl-benzamide, reference compound] | 2-3 | – | 3 | 2 | – | – | 3 | – | 3 | 3 | – | 3-4 | 1 | – | 3 | 3 | – | 3-4 | 2 | 1 | activity on H, 0-4 scale ([5]; in vivo): 3-4; activity on G, 0-4 scale ([6]; in vivo): 1; activity on M, 0-4 scale ([7]; in vivo): 3-4; activity on N, 0-4 scale ([8]; in vivo): 1; activity on L, 0-4 scale ([10]; in vivo): 1; activity on P, 0-4 scale ([13]; in vivo): 3 |
| CCC(C)N(C(=O)c1c(Cl)cccc1Cl)C(C)CC (stereo not shown) [PA227, 2,6-dichloro-N,N-di-sec.butyl-benzamide] | 0 | 0 | 0 | 2 | 3 | 4 | 1 | 2 | 3-4 | 0-1 | 1-2 | 2 | 2 | 3 | 4 | 1-2 | 3 | – | 0 | 0 | activity on H, 0-4 scale ([5]; in vivo): 2; activity on G, 0-4 scale ([6]; in vivo): 0; activity on M, 0-4 scale ([7]; in vivo): 1; activity on N, 0-4 scale ([8]; in vivo): 0; activity on L, 0-4 scale ([10]; in vivo): 0; activity on P, 0-4 scale ([13]; in vivo): 0 |
